Columns and labels:
[1] = test system: hSOD1-G93A transgenic mice; assay type: in vivo; settings: for Effect on delaying the progression of amyotrophic lateral sclerosis (in words): judged from fall time and mice surviving more than 120 days; for Falling time (s) On 1st day of gavage / Falling time (s) On 7th day of gavage / Falling time (s) On 14th day of gavage / Falling time (s) On 21th day of gavage / Falling time (s) On 28th day of gavage: intragastric once a day, 40 mg/kg (positive control 2 mg/kg), rod 12 r/min, cut-off 10 min; for Falling time (s) On 1st day of gavage: 1 h after 1st administration; for Falling time (s) On 7th day of gavage: 1 h after 7th administration; for Falling time (s) On 14th day of gavage: 1 h after 14th administration; for Falling time (s) On 21th day of gavage: 1 h after 21st administration; for Falling time (s) On 28th day of gavage: 1 h after 28th administration
Experimental: (§1) 10 two-months wild-type BALB/C mice were used as the normal control group, and 110 two-months hSOD1-G93A transgenic mice were randomly divided into 11 groups, 10 mice for each group, and 11 groups are blank group, positive control group, the drug compositions 1-3 of the present invention groups, and the control 1-6 groups, respectively.
All mice were adaptively fed for three weeks, and a rotating rod experiment was performed once a week. The diameter of the rotating rod was 3.5 cm, and its rotating speed was 12 r/min. Experiment on each mouse was carried out three times in parallel, with a 5 min interval. The longest time recorded was the fall time of mice, the mice with a fall time of shorter than 7 min in the third rotating rod experiment were excluded, and then mice received drugs by intragastric administration, in which the normal control group and the blank group were given physiological saline, while the positive control group, the drug combinations 1-3 groups, and the control groups 1-6 were given corresponding drugs, with the volume of 0.5 ml. Amongst, the gavage dose of positive control group was 2 mg/kg body weight, and the gavage dose of drug combinations 1-3 and controls 1-6 groups was both 40 mg/kg body weight. For all of groups, drugs were given once a day for 4 weeks. After 1 h of the 1st, 7th, 14th, 21st, and 28th intragastric administrations, a stick-rotation experiment was performed. In one experiment, each mouse was tested 3 times at interval of 5 minutes, and the longest time recorded was the fall time of mice. […] After the 28th gavage, the mice were continually fed, and the number of mice surviving for more than 120 days in each group was recorded, in which if they were placed in the supine position, the mice could not turn to the prone position within 30 S, and thus they were determined as dead.

[2] = test system: hSOD1-G93A transgenic mice; test: Number of mice surviving more than 120 days; assay type: in vivo; settings: intragastric once a day for 4 weeks, 40 mg/kg (positive control 2 mg/kg), 8-9 mice per group
Experimental: as §1
All mice were adaptively fed for three weeks, and a rotating rod experiment was performed once a week. The diameter of the rotating rod was 3.5 cm, and its rotating speed was 12 r/min. Experiment on each mouse was carried out three times in parallel, with a 5 min interval. The longest time recorded was the fall time of mice, the mice with a fall time of shorter than 7 min in the third rotating rod experiment were excluded, and then mice received drugs by intragastric administration, in which the normal control group and the blank group were given physiological saline, while the positive control group, the drug combinations 1-3 groups, and the control groups 1-6 were given corresponding drugs, with the volume of 0.5 ml. Amongst, the gavage dose of positive control group was 2 mg/kg body weight, and the gavage dose of drug combinations 1-3 and controls 1-6 groups was both 40 mg/kg body weight. […] In one experiment, each mouse was tested 3 times at interval of 5 minutes, and the longest time recorded was the fall time of mice. […]

Compound	Indexes for the fall time and the number of mice surviving more than 120 days, comparison between groups (in words) ([1]; gavage 4 weeks)	Effect on delaying the progression of amyotrophic lateral sclerosis (in words) ([1]; gavage 4 weeks)	Falling time (s) On 1st day of gavage [1] [s]	Falling time (s) On 7th day of gavage [1] [s]	Falling time (s) On 14th day of gavage [1] [s]	Falling time (s) On 21th day of gavage [1] [s]	Falling time (s) On 28th day of gavage [1] [s]	Survival numbers (number of mice surviving for more than 120 days) [2]
creatine phosphate sodium [Control 6]	roughly equivalent to those in the blank group	don't have obvious effect on delaying the progression of this disease	475.8 ± 22.8	284.6 ± 19.3	155.8 ± 24.8	71.3 ± 12.3	44.78 ± 11.3	2
Nc1nc2ccc(OC(F)(F)F)cc2s1 [Positive control, Riluzole]	–	–	479.2 ± 31.8	389.5 ± 27.7	259.3 ± 29.5	187.4 ± 17.5	129.3 ± 15.4	–
O=C(/C=C/c1ccc(O)c(O)c1)O[C@@H]1C[C@](O)(C(=O)O)C[C@@H](O)[C@H]1O [Control 1, 3-O-caffeoylquinic acid]	–	showed to some extent the effect on delaying the progression of amyotrophic lateral sclerosis	468.9 ± 26.1	315.3 ± 27.6	221.5 ± 22.8	127.8 ± 19.5	89.1 ± 18.5	3

From patent US20210137951A1, “DRUG COMBINATION FOR TREATMENT OF AMYOTROPHIC LATERAL SCLEROSIS, PREPARATION METHOD AND USE THEREOF” (priority 2018, published 2021)
